According to PMC6100043, “Development of Thiophene Compounds as Potent Chemotherapies for the Treatment of Cutaneous Leishmaniasis Caused by Leishmania major” (Molecules : A Journal of Synthetic Chemistry and Natural …, 2018):
Like-named read-outs stand apart in the source and are kept apart here.

Key:
[1] = Mammalian cell cytotoxicity (alamarBlue for 5A; PI/Hoechst HCIA for 5D, 5E) in IPΦ; conditions: BALB/c, mouse, intraperitoneal mouse macrophages (IPΦ)
[2] = test system: intraperitoneal mouse macrophages (IPΦ); assay: as above; conditions: for S.I. IPΦ (CC50 mammalian cells)/(EC50 in L. major-luc promastigotes): IPΦ vs L. major-luc promastigotes
[3] = test system: L. major-luc promastigotes; assay: Luciferase assay, viability of L. major-luc promastigotes; type: cell-based, Leishmania major; conditions: 72 h at 28 °C, 2 × 10^6 promastigotes per mL, luciferase activity
[4] = Mammalian cell cytotoxicity (alamarBlue for 5A; PI/Hoechst HCIA for 5D, 5E) in LLC-MK2; conditions: rhesus monkey, LLC-MK2 kidney epithelial cells
[5] = test system: monkey kidney cells (LLC-MK2); assay: as above; conditions: for S.I. LLC-MK2 (CC50 mammalian cells)/(EC50 in L. major-luc promastigotes): LLC-MK2 vs L. major-luc promastigotes
L. major promastigotes = assay: Measurement of reactive oxygen species levels (H2DCFDA); type: cell-based, Leishmania major; conditions: 5D at EC50, 24 h incubation + 7 h reading (31 h), H2DCFDA 10 µM
[6] = test system: L. major intracellular amastigotes; assay: High-Content Imaging Assay, proliferation of intracellular amastigotes in infected IPΦ; type: cell-based, Leishmania major; conditions: for number of infected cells compared to control treated with 1% DMSO: 2.5 µM, infected IPΦ; for number of infected cells compared to control treated with 1% DMSO / inhibition at 0.625 µM: 48 h; for inhibition at 0.625 µM: Leishmania major, read-out: inhibition of the proliferation of intracellular amastigotes
[7] = design: method as in PMID 25365529, PMID 26230675; conditions: cited from earlier work
[8] = read-out: EC50 Leishmania major-luc promastigotes

| Compound | CC50 at 48 h [1] [µM] | S.I. IPΦ (CC50 mammalian cells)/(EC50 in L. major-luc promastigotes) [2] | EC50 ([3]; Leishmania major, 72 h) [µM] | CC50 at 72 h [4] [µM] | other results |
| --- | --- | --- | --- | --- | --- |
| CCOC(=O)c1c(NC(=O)c2ccc(C(F)(F)F)cc2)sc2c1CC(C)(C)NC2(C)C [Compound 5A, Ethyl 5,5,7,7-tetramethyl-2-(4-(trifluoromethyl)benzamido)-4,5,6,7-tetrahydrothieno[2,3-c]pyridine-3-carboxylate] | ~10.4 | 30.50 | ~0.34 | 17.7 ± 1.12 | cytotoxicity for IPΦ ([2]; at 5 and 10 µM, in HCIA of infected IPΦ, 48 h): cytotoxic; EC50 [3, 8]: ~0.341 µM; S.I. LLC-MK2 (CC50 mammalian cells)/(EC50 in L. major-luc promastigotes) [5]: 52.85 |
| CCOC(=O)c1c(NC(=O)c2ccccc2C(F)(F)F)sc2c1CC(C)(C)NC2(C)C [Compound 5B, Ethyl-5,5,7,7-tetramethyl-2-(2-(trifluoromethyl)benzamido)-4,5,6,7-tetrahydrothieno[2,3-c]pyridine-3-carboxylate] | – | – | 5.98 ± 1.72 | – | – |
| CCOC(=O)c1c(NC(=O)c2cccc(C(F)(F)F)c2F)sc2c1CC(C)(C)NC2(C)C [Compound 5D, Ethyl-2-(2-fluoro-3-(trifluoromethyl)benzamido)-5,5,7,7-tetramethyl-4,5,6,7-tetrahydrothieno[2,3-c]-pyridine-3-carboxylate] | 27.9 ± 3.19 | 310 | – | > 80 | selectivity compared with parent compound 5A ([2]; fold higher than 5A): 10 fold; ROS levels, fold higher compared to vehicle control 1% DMSO (L. major promastigotes): 14.5 fold; number of infected cells compared to control treated with 1% DMSO [6]: reduced number of infected cells; inhibition at 0.625 µM [6]: > 75%; decrease of the proliferation of the parasite (intracellular amastigotes) ([6]; infected murine macrophages, concentration not given): 80%; toxicity against LLC-MK2 ([5]; at concentrations up to 80 µM, 72 h): did not display perceptible toxicity |
| CCOC(=O)c1c(NC(=O)c2ccc(F)c(C(F)(F)F)c2)sc2c1CC(C)(C)NC2(C)C [Compound 5E, Ethyl-2-(4-fluoro-3-(trifluoromethyl)benzamido)-5,5,7,7-tetramethyl-4,5,6,7-tetrahydrothieno[2,3-c]-pyridine-3-carboxylate] | 16.6 ± 1.52 | 21.27 | 0.78 ± 0.11 | 80 ± 4.45 | number of infected cells compared to control treated with 1% DMSO [6]: reduced number of infected cells; inhibition at 0.625 µM [6]: > 50%; S.I. LLC-MK2 (CC50 mammalian cells)/(EC50 in L. major-luc promastigotes) [5]: 102.56 |
| CC1(C)Cc2c(sc(NC(=O)c3cc(Cl)ccc3C(F)(F)F)c2C(=O)O)C(C)(C)N1 [Compound 5F, 2-(5-chloro-2-(trifluoromethyl)benzamido)-5,5,7,7-tetramethyl-4,5,6,7-tetrahydrothieno[2,3-c]pyridine-3-carboxylic acid] | – | – | > 12.5 | – | – |
| CC1(C)Cc2c(sc(NC(=O)c3ccccc3C(F)(F)F)c2C(=O)O)C(C)(C)N1 [Compound 5G, 5,5,7,7-tetramethyl-2-(2-(trifluoromethyl)benzamido)-4,5,6,7-tetrahydrothieno[2,3-c]pyridine-3-carboxylic acid] | – | – | > 12.5 | – | – |
| COC(=O)c1c(NC(=O)c2ccc(F)c(C(F)(F)F)c2)sc2c1CC(C)(C)NC2(C)C [Compound 5H, Methyl-2-(4-fluoro-3-(trifluoromethyl)benzamido)-5,5,7,7-tetramethyl-4,5,6,7-tetrahydrothieno[2,3-c]-pyridine3-carboxylate] | – | – | 3.05 ± 0.47 | – | – |
| COC(=O)c1c(NC(=O)c2ccccc2C(F)(F)F)sc2c1CC(C)(C)NC2(C)C [Compound 5I, Methyl-5,5,7,7-tetramethyl-2-(2-(trifluoromethyl)benzamido)-4,5,6,7-tetrahydrothieno[2,3-c]pyridine-3-carboxylate] | – | – | 5.5 ± 1.8 | – | – |
| CCCCCCCCCCCCCCCCOP(=O)([O-])OCC[N+](C)(C)C [Miltefosine, miltefosine] | – | – | – | – | half-life [7]: 150 h |
| Ethyl-5,5,7,7-tetramethyl-2-(2-(trifluoromethyl)benzamido)-4,5,6,7-tetrahydrothieno[2,3-c]pyridine-3-carboxylate [Compound 5C] | – | – | – | – | EC50 [3, 8]: 4.73 ± 0.69 µM |
